Experiments:
[1] = molecular target: T1, Cholesteryl ester transfer protein (Homo sapiens, UniProt P11597); assay: Inhibition of human recombinant CETP by fluorescence transfer assay
T1 sequence (P11597 whole entry): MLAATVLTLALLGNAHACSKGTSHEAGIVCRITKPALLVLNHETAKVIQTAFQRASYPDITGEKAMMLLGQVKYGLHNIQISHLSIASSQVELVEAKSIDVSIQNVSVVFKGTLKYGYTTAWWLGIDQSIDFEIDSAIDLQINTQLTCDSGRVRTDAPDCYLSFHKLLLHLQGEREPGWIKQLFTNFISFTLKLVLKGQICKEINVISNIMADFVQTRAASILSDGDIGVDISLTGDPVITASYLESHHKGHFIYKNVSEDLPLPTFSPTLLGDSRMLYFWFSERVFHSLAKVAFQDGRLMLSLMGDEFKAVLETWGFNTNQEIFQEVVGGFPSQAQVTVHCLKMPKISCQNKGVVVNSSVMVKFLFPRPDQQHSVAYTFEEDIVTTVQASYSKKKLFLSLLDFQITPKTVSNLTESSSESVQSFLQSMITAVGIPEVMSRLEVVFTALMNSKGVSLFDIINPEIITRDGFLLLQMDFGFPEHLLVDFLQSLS

[2] = Terminal elimination half life in healthy human administered as single oral dose; assay type: ADME, organism-based; settings: in vivo, read-out: beta t1/2 (converted)

SMILES | IC50 [1] [µM] | half-life [2] [h]
CC(C)c1nc2c(c3c1[C@@H](c1ccc(C(F)(F)F)cn1)OC31CCCC1)[C@@H](O)CC(C)(C)C2 | 0.096 | –
CCOC(=O)N1c2ccc(C(F)(F)F)cc2[C@@H](N(Cc2cc(C(F)(F)F)cc(C(F)(F)F)c2)C(=O)OC)C[C@H]1CC [TORCETRAPIB] | – | 221
Cc1cc(C)c2c(c1)[C@@H](N(Cc1cc(C(F)(F)F)cc(C(F)(F)F)c1)c1nnn(C)n1)CCCN2C[C@H]1CC[C@H](C(=O)O)CC1 [EVACETRAPIB] | – | 44

— ChEMBL document CHEMBL3351249, “Potent cholesteryl ester transfer protein inhibitors of reduced lipophilicity: 1,1'-spiro-substituted hexahydrofuroquinoline derivatives” (J Med Chem, 2014)
